{"source": "ChEMBL document CHEMBL6153135", "about": "“Rational Design of a Potent, Selective, and Metabolically Stable CDK9 Inhibitor to Counteract Osimertinib Resistance through Mcl-1 Suppression and Enhanced BRD4 Co-Targeting” (J Med Chem, 2025)", "key": {"[1]": {"target": "CDK9/cyclin T1 (Homo sapiens) (UniProt O60563+P50750)", "test": "Inhibition of CDK9/cyclin T1 (unknown origin) at 100 nM preincubated for 10 mins followed by substrate/ATP measured after 60 mins by ADP-Glo assay relative to control", "assay_type": "protein-complex assay", "conditions": "time 70.0 min"}, "HCC827 [2]": {"system": "HCC827", "test": "Selectivity ratio of IC50 for anti-proliferative activity against human HCC827 cells to IC50 for anti-proliferative activity against human HCC827 cells in presence of JQ1", "assay_type": "functional"}, "[3]": {"test": "Anti-proliferative activity against human Osimertinib-resistant HCC827 cells assessed as cell inhibition measured after 72 hrs by MTT assay", "assay_type": "functional, cell-based"}, "[4]": {"test": "Metabolic stability in human liver S9 fraction assessed as half life measured for 5 to 60 mins by LC-MS/MS analysis", "assay_type": "ADME, subcellular", "conditions": "time 5-60 min"}, "[5]": {"target": "Cyclin-dependent kinase 9 (Homo sapiens) (UniProt P50750)", "sequence (P50750 whole entry)": "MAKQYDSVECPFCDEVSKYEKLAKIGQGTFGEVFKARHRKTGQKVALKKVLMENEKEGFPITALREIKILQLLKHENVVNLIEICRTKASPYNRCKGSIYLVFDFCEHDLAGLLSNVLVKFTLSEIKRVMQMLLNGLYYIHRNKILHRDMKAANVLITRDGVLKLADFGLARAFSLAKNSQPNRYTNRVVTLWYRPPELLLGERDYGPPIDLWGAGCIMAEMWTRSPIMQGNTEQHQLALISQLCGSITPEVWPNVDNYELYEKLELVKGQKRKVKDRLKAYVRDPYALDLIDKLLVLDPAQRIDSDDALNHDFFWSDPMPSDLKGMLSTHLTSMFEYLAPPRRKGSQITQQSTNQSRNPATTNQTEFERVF", "test": "Inhibition of CDK9 in human Osimertinib-resistant NCI-H1975 cells assessed as decrease in Mcl-1 level incubated for 12 hrs by Western blot analysis", "assay_type": "cell-based", "conditions": "Osimertinib-resistant NCI-H1975 cell, dose 50-500 nM"}, "[6]": {"test": "Drug concentration in tumor of BALB-c nude mouse xenografted with human NCI-H1975 cells at 15 mg/kg, iv measured after 30 mins by LC-MS/MS analysis", "assay_type": "ADME, organism-based, Neoplasm", "conditions": "read-out: Ct"}, "HCC827 [7]": {"system": "HCC827", "test": "Anti-proliferative activity against human HCC827 cells assessed as cell inhibition measured after 72 hrs in presence of 500 nM JQ1 by MTT assay", "assay_type": "functional, cell-based", "conditions": "HCC827, 72 h"}, "[8]": {"test": "Apparent volume of distribution in Sprague-Dawley rat at 20 mg/kg, po", "assay_type": "ADME, organism-based", "conditions": "in vivo"}, "[9]": {"system": "Lung adenocarcinoma organoid", "test": "Anti-tumor activity against Osimertinib-resistant patient (#0085)-derived human Lung adenocarcinoma organoid assessed as inhibition of cell viability measured after 96 hrs relative to control", "assay_type": "functional, Neoplasm"}, "[10]": {"system": "Lung adenocarcinoma organoid", "test": "Anti-tumor activity against multidrug-resistant patient (#2663)-derived human Lung adenocarcinoma organoid assessed as inhibition of cell viability measured after 96 hrs", "assay_type": "functional, tissue-based", "conditions": "Neoplasm"}, "[11]": {"test": "Oral bioavailability in BALB/c mouse at 15 mg/kg", "assay_type": "ADME, organism-based", "conditions": "in vivo"}, "[12]": {"system": "Osimertinib-resistant NCI-H1975 cell", "test": "Induction of apoptosis in human Osimertinib-resistant NCI-H1975 cells assessed as early apoptotic cells at 2 uM incubated for 16 hrs by Annexin V-FITC/PI staining based flow cytometry (reference value: 8.02 %)", "assay_type": "functional"}, "[13]": {"system": "Lung adenocarcinoma organoid", "test": "Anti-tumor activity against Osimertinib-resistant patient (#0085)-derived human Lung adenocarcinoma organoid assessed as inhibition of cell viability measured after 96 hrs", "assay_type": "functional, tissue-based", "conditions": "Neoplasm"}, "[14]": {"test": "Metabolic stability in pig liver microsomes assessed as half life measured for 5 to 60 mins by LC-MS/MS analysis", "assay_type": "ADME, Sus scrofa, Microsome", "conditions": "time 5-60 min"}, "16HBE14o-": {"system": "16HBE14o-", "test": "Anti-proliferative activity against human 16-HBE cells assessed as cell inhibition measured after 72 hrs by MTT assay", "assay_type": "functional, cell-based"}, "[15]": {"test": "Toxicity in BALB-c mouse xenografted with human NCI-H1975 cells assessed as decrease in body weight at 5 mg/kg, iv", "assay_type": "organism-based", "conditions": "in vivo"}, "[16]": {"system": "Osimertinib-resistant HCC827 cell", "test": "Inhibition of stem cell multi-functionality signaling in human Osimertinib-resistant HCC827 cells by KEGG analysis", "assay_type": "functional, cell-based"}, "[17]": {"system": "Lung adenocarcinoma organoid", "test": "Anti-tumor activity against patient (#2223)-derived human Lung adenocarcinoma organoid assessed as inhibition of cell viability measured after 96 hrs relative to control", "assay_type": "functional, Neoplasm"}, "NCI-H1975 [18]": {"system": "NCI-H1975", "test": "Anti-proliferative activity against human NCI-H1975 cells assessed as cell inhibition measured after 72 hrs in presence of 250 nM JQ1 by MTT assay", "assay_type": "functional, cell-based", "conditions": "NCI-H1975, 72 h"}, "[19]": {"system": "Osimertinib-resistant HCC827 cell", "test": "Inhibition of cell cycle regulation in human Osimertinib-resistant HCC827 cells by KEGG analysis", "assay_type": "functional, cell-based"}, "[20]": {"test": "Half life in BALB/c mouse at 2 mg/kg, iv", "assay_type": "ADME, organism-based", "conditions": "in vivo"}, "[21]": {"test": "AUC (0 to infinity) in Sprague-Dawley rat at 20 mg/kg, po", "assay_type": "ADME, organism-based", "conditions": "in vivo"}, "[22]": {"test": "AUC (0 to t) in BALB/c mouse at 2 mg/kg, iv", "assay_type": "ADME, organism-based", "conditions": "in vivo"}, "Mus musculus": {"system": "Mus musculus", "test": "In vivo downregulation of c-Myc level in tumor tissue of BALB-c nude mouse xenografted with human Osimertinib-resistant HCC827 cells at 5 mg/kg, iv in presence of JQ1 by Western blot analysis", "assay_type": "functional, organism-based"}, "NCI-H1975 [23]": {"system": "NCI-H1975", "test": "Antitumor activity against human NCI-H1975 cells xenografted in BALB-c nude mouse assessed as tumor growth inhibition at 5 mg/kg, iv in presence of JQ1 relative to control", "assay_type": "functional", "conditions": "read-out: TGI"}, "[24]": {"system": "Lung adenocarcinoma organoid", "test": "Anti-tumor activity against patient (#2223)-derived human Lung adenocarcinoma organoid assessed as inhibition of cell viability measured after 96 hrs", "assay_type": "functional, tissue-based", "conditions": "Neoplasm"}, "[25]": {"test": "Metabolic stability in dog liver microsomes assessed as clearance measured for 5 to 60 mins by LC-MS/MS analysis", "assay_type": "ADME, Canis lupus familiaris, Microsome", "conditions": "time 5-60 min, read-out: CLH"}, "[26]": {"test": "Oral bioavailability in Sprague-Dawley rat at 20 mg/kg", "assay_type": "ADME, organism-based", "conditions": "in vivo"}, "[27]": {"system": "Osimertinib-resistant NCI-H1975 cell", "test": "Induction of apoptosis in human Osimertinib-resistant NCI-H1975 cells assessed as viable cells at 0.5 uM incubated for 16 hrs by Annexin V-FITC/PI staining based flow cytometry (reference value: 89.4 %)", "assay_type": "functional", "conditions": "read-out: Activity"}, "[28]": {"test": "C0 in BALB/c mouse at 2 mg/kg, iv", "conditions": "in vivo"}, "[29]": {"system": "Osimertinib-resistant NCI-H1975 cell", "test": "Induction of apoptosis in human Osimertinib-resistant NCI-H1975 cells assessed as late apoptotic cells at 0.5 uM incubated for 16 hrs by Annexin V-FITC/PI staining based flow cytometry (reference value: 1.42 %)", "assay_type": "functional"}, "[30]": {"test": "Anti-proliferative activity against human Osimertinib-resistant HCC827 cells assessed as cell inhibition measured after 72 hrs in presence of 500 nM JQ1 by MTT assay", "assay_type": "functional, cell-based"}, "[31]": {"test": "Apparent volume of distribution in Sprague-Dawley rat at 2 mg/kg, iv", "assay_type": "ADME, organism-based", "conditions": "in vivo, read-out: Vz"}, "[32]": {"system": "Osimertinib-resistant NCI-H1975 cell", "test": "Anti-proliferative activity against human Osimertinib-resistant NCI-H1975 cells assessed as cell inhibition measured after 72 hrs in presence of 100 nM JQ1 by MTT assay", "assay_type": "functional, cell-based"}, "[33]": {"test": "Cmax in Sprague-Dawley rat at 20 mg/kg, po", "conditions": "in vivo"}, "[34]": {"test": "Apparent volume of distribution in BALB/c mouse at 15 mg/kg, po", "assay_type": "ADME, organism-based", "conditions": "in vivo"}, "[35]": {"test": "Cmax in BALB/c mouse at 15 mg/kg, po", "conditions": "in vivo"}, "[36]": {"system": "Osimertinib-resistant HCC827 cell", "test": "Inhibition of Hippo signaling in human Osimertinib-resistant HCC827 cells in presence of JQ1 by KEGG analysis", "assay_type": "cell-based"}, "[37]": {"target": "Glycogen synthase kinase-3 alpha (Homo sapiens) (UniProt P49840)", "sequence (P49840 2-483 limits assumed)": "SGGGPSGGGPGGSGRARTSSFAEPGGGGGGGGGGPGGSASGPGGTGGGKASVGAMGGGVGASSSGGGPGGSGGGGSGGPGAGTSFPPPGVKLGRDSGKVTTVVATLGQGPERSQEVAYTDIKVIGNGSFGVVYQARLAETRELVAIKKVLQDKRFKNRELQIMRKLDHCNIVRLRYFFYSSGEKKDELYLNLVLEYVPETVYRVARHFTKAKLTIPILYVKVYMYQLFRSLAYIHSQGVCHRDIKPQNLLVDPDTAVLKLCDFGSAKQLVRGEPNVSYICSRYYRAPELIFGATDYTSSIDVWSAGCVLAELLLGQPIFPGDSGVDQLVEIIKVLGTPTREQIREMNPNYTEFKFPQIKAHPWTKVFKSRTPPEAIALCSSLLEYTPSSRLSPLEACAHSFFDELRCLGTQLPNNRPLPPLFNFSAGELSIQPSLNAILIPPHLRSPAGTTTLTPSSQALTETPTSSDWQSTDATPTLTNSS", "test": "Inhibition of GSK3-alpha (unknown origin) at 100 nM preincubated for 10 mins followed by substrate/ATP measured after 60 mins by ADP-Glo assay relative to control", "conditions": "time 70.0 min"}, "[38]": {"test": "C0 in Sprague-Dawley rat at 2 mg/kg, iv", "conditions": "in vivo"}}, "note": "The source made the active and inactive calls. The calls are words filed in the database; no cut-off is given here."}
{"smiles": "CC(=O)N1CCC(NC(=O)c2ccc3cc2OCCCCCCOc2cc(ccc2F)-c2nc(ncc2F)N3)CC1", "values": [{"measurement": "inhibition", "setting": "[1]", "result": 97.3, "unit": "%"}, {"measurement": "Ratio IC50", "setting": "HCC827 [2]", "result": 10}, {"measurement": "IC50", "setting": "[3]", "result": 63.9, "unit": "nM"}, {"measurement": "half-life", "setting": "[4]", "result": 1.62, "unit": "h"}, {"measurement": "inhibition", "setting": "[5]", "result": "Dose-dependent-effect"}, {"measurement": "concentration at 0.5 h", "setting": "[6]", "result": 864, "unit": "ng/mL"}, {"measurement": "IC50", "setting": "HCC827 [7]", "result": 9.7, "unit": "nM"}, {"measurement": "Vz", "setting": "[8]", "result": 30, "unit": "L/kg"}, {"measurement": "Imax", "setting": "[9]", "result": ">98", "unit": "%"}, {"measurement": "IC50", "setting": "[10]", "result": "< 50", "unit": "nM"}, {"measurement": "bioavailability", "setting": "[11]", "result": 25.8, "unit": "%"}, {"measurement": "Activity", "setting": "[12]", "result": 26, "unit": "%"}, {"measurement": "IC50", "setting": "[13]", "result": 44.7, "unit": "nM"}, {"measurement": "half-life", "setting": "[14]", "result": 0.655, "unit": "h"}, {"measurement": "IC50", "setting": "16HBE14o-", "result": 480, "unit": "nM"}, {"measurement": "Activity", "setting": "[15]", "result": "Non-toxic"}, {"measurement": "inhibition", "setting": "[16]", "result": "Active"}, {"measurement": "Imax", "setting": "[17]", "result": 99.9, "unit": "%"}, {"measurement": "IC50", "setting": "NCI-H1975 [18]", "result": 29.7, "unit": "nM"}, {"measurement": "inhibition", "setting": "[19]", "result": "Active"}, {"measurement": "half-life", "setting": "[20]", "result": 4.2, "unit": "h"}, {"measurement": "AUC(0-inf)", "setting": "[21]", "result": 5960, "unit": "ng·h/mL"}, {"measurement": "AUC(0-t)", "setting": "[22]", "result": 380, "unit": "ng·h/mL"}, {"measurement": "Activity", "setting": "Mus musculus", "result": "Active"}, {"measurement": "inhibition in vivo at 5 mg/kg", "setting": "NCI-H1975 [23]", "result": 60, "unit": "%"}, {"measurement": "IC50", "setting": "[24]", "result": "< 50", "unit": "nM"}, {"measurement": "microsomal CLint", "setting": "[25]", "result": 18.4, "unit": "µL/min/mg"}, {"measurement": "bioavailability", "setting": "[26]", "result": 14.3, "unit": "%"}, {"measurement": "viability at 0.5 µM", "setting": "[27]", "result": 63.1, "unit": "%"}, {"measurement": "C0", "setting": "[28]", "result": 1206.2, "unit": "ng/mL"}, {"measurement": "Activity", "setting": "[29]", "result": 10, "unit": "%"}, {"measurement": "IC50", "setting": "[30]", "result": 5.2, "unit": "nM"}, {"measurement": "Vd", "setting": "[31]", "result": 1.9, "unit": "L/kg"}, {"measurement": "IC50", "setting": "[32]", "result": 26.8, "unit": "nM"}, {"measurement": "Cmax", "setting": "[33]", "result": 775.6, "unit": "ng/mL"}, {"measurement": "Vz", "setting": "[34]", "result": 109.3, "unit": "L/kg"}, {"measurement": "Cmax", "setting": "[35]", "result": 344.1, "unit": "ng/mL"}, {"measurement": "inhibition", "setting": "[36]", "result": "Active"}, {"measurement": "inhibition", "setting": "[37]", "result": 97.5, "unit": "%"}, {"measurement": "C0", "setting": "[38]", "result": 2527, "unit": "ng/mL"}]}
